According to article PMC8868383, “Pharmacokinetics and Pharmacodynamics of Key Components of a Standardized Centella asiatica Product in Cognitively Impaired Older Adults: A Phase 1, Double-Blind, Randomized Clinical Trial” (Antioxidants, 2022):
Where “and” joins values, the source holds several entries; their conditions need not be identical. Equal entries are not always repeated. Where two headings read alike, the source gives them in different places.

Columns and labels:
[1] = set-up: method as in PMID 19167274; conditions: dogs given encapsulated aqueous extracts of C. asiatica standardized to asiaticoside; cited from earlier work
[2] = set-up: method as in PMID 2329813, PMID 8020529; conditions: past human studies of TTFCA or asiatic acid alone, capsule form; cited from earlier work
[3] = Renal (urinary) excretion over 10 h after CAP administration; conditions: for Detection in 10 h post-administration urine / Predominant form (free or conjugated) in post-administration urine: 2 g and 4 g CAP; for Predominant form (free or conjugated) in post-administration urine: 10 h urine
Method: (§1) All participants were asked to refrain from consuming food until 2 h after consumption of the study intervention at each visit to prevent delayed absorption due to food effects. […] Urine samples were collected at baseline and over the 10 h post-administration period at each visit to measure renal excretion. All post-administration urinary output was combined in a 2 L urine collection container stored at 4 °C during the study visit. The total amount of post CAP administration urine was recorded, and a 50 mL aliquot was frozen at −80 °C for analysis. At the second visit, participants consumed the dose they were not randomized to receive at the first visit and underwent all study procedures previously described.
(§2) Calibration curves were prepared in baseline urine and treated with sham enzyme.
(§3) Plasma and urine samples collected at the participant’s screening visit were analyzed in parallel with the samples collected from each study visit to determine the efficacy of the low phytochemical diet in reducing analyte levels from dietary sources. The analysis of the prepared plasma and urine samples was performed at the OHSU Bioanalytical Shared Resource/Pharmacokinetics Core Laboratory (Portland, OR). […] The injection volume was 5 µL. Gradient elution was performed using a mobile phase of solvent A (water containing 0.05% v/v acetic acid) and solvent B (acetonitrile with 0.05% v/v acetic acid). The flow rate was 0.8 mL/min.

[4] = Plasma pharmacokinetics after single oral administration of CAP; conditions: for Cmax / Tmax / AUC(0-t) / half-life: human; for Cmax / Tmax / AUC(0-t) / half-life / Fold difference in Cmax between the 2 g and 4 g doses: plasma; for Time of larger secondary peak of plasma concentration-time curve / Time of preliminary (initial) peak of plasma concentration-time curve: mean profile, both doses (2 g and 4 g)
From the text: (§4) This was a single-center, randomized, double blind, crossover study of two acute dosages (2 g and 4 g) of CAP. The participants were randomized using an arm equivalence design, by the OHSU Research Pharmacy, to receive each dose of CAP in a different order to prevent tolerance effects and ensure some data was available from each dose in the case of a dropout after the first dose. All study personnel were blinded to the participant’s randomization until all data analysis had been completed. All participants consumed both doses of CAP and attended two study visits a minimum of 14 days apart. They were placed on a low phytochemical diet for 48 h prior to and during each study visit in order to minimize interference from dietary TTs and CQAs and ensure that any such compounds identified in the plasma and urine were derived from C. asiatica. To ensure compliance, all participants completed a diet diary over the course of the 48 h. The participants fasted for a minimum of 10 h prior to each study visit, excluding water, to standardize gastrointestinal transit time and minimize delayed absorption due to the presence of food.
(§5) In the morning of each study visit, a baseline blood sample (20 mL) was collected via a peripheral intravenous catheter. […] Blood samples (10 mL) were collected via the peripheral catheter over a 10 h post-administration period at 0.25, 0.5, 0.75, 1, 1.5, 2, 2.5, 3, 4, 6, 8, and 10 h. Blood was transferred to a BD Vacutainer™ heparinized tube (Fisher Scientific) and centrifuged for 10 min at 10,000× g and 4 °C to isolate plasma. Plasma was frozen in 2mL aliquots and kept at −80 °C until analysis. […] All participants were asked to refrain from consuming food until 2 h after consumption of the study intervention at each visit to prevent delayed absorption due to food effects. Breakfast (at 2 h following CAP ingestion), lunch, dinner and snacks, all meeting the low phytochemical criteria, were provided by the OCTRI Bionutrition Unit. Urine samples were collected at baseline and over the 10 h post-administration period at each visit to measure renal excretion. All post-administration urinary output was combined in a 2 L urine collection container stored at 4 °C during the study visit. The total amount of post CAP administration urine was recorded, and a 50 mL aliquot was frozen at −80 °C for analysis. At the second visit, participants consumed the dose they were not randomized to receive at the first visit and underwent all study procedures previously described.
(§6) Sample preparation was performed using a protein precipitation method adapted from Cheng et al. [55] Duplicate plasma samples (50 µL) were combined with an ascorbic acid solution (1%; 10 µL) and incubated for 20 min at 37 °C using A. aerogenes sulfatase (2.5 µL; 0.025–0.05 units) and E. coli glucuronidase (2.5 µL; 12.5–125 units) dissolved in 50% aqueous glycerol to release the analytes from their sulfate and β-D-glucuronic acid esters. Proteins were precipitated by adding a crash solution (200 µL) consisting of 3:1 acetonitrile:methanol containing internal standards (20 µg/mL d3-isoferulic acid, d3-dihydroisoferulic acid, and chrysin or 50 µg/mL ^13C3-ferulic acid and ursolic acid), holding for 30 min at 4 °C and then centrifuged for 5 min at 10,000× g. The supernatant was filtered through a 0.22 µm Ultrafree MC-GV spin filter (Millipore Sigma) at 10,000× g for 5 min at 4 °C and then transferred to vials for analysis. For TT analysis, the concentration of organic solvent (the sample filtrate) to water in each sample was adjusted to a 60:40 ratio to optimize the peak shape, and for CQA analysis, the concentration of organic solvent to 1% aqueous formic acid in each sample was adjusted to a 90:10 ratio to optimize the peak shape.

[5] = Analyte levels in screening and baseline plasma and urine (low phytochemical diet check); conditions: for Screening Total, urine concentration / Screening Unconjugated, urine concentration: screening visit; for Screening Total, urine concentration / Screening Unconjugated, urine concentration / Plasma concentration at screening visit: uncontrolled diet; for Screening Total, urine concentration: with enzyme hydrolysis; for Screening Total, urine concentration / Screening Unconjugated, urine concentration / Baseline Total, urine concentration / Baseline Unconjugated, urine concentration: mean ± SEM, n = 4; for Screening Unconjugated, urine concentration: sham enzyme; for Plasma concentration at screening visit: before any CAP; for Baseline Total, urine concentration / Baseline Unconjugated, urine concentration: baseline on study visits after 48 h low phytochemical diet, before CAP
From the text: as §4, §2
(§7) Plasma and urine samples collected at the participant’s screening visit were analyzed in parallel with the samples collected from each study visit to determine the efficacy of the low phytochemical diet in reducing analyte levels from dietary sources. The analysis of the prepared plasma and urine samples was performed at the OHSU Bioanalytical Shared Resource/Pharmacokinetics Core Laboratory (Portland, OR). For detection of TT glycosides and aglycones, an analytical method adapted from Nair et al. [56] was used. […] The injection volume was 20 µL. Gradient elution was performed using a mobile phase of solvent A (water containing 10 mM ammonium acetate and 0.02% ammonium hydroxide; pH 8.5) and solvent B (methanol). The flow rate was 0.42 mL/min. […] The injection volume was 5 µL. Gradient elution was performed using a mobile phase of solvent A (water containing 0.05% v/v acetic acid) and solvent B (acetonitrile with 0.05% v/v acetic acid). The flow rate was 0.8 mL/min.

clinical = conditions: human, in vivo, po
From the text: as §4, §5, §6

[6] = human, in vivo
From the text: as §4, §5, §6

[7] = in vivo
Method: as §1, §2, §3

[8] = in vivo; remark: listed apart in the source
From the text: as §4, §2, §7

[9] = set-up: method as in PMID 33767223; conditions: two separate doses (250 mg and 500 mg), formulation with solubilizing agent; cited from earlier work

For `C[C@H]1[C@H](C)CC[C@]2(C(=O)O)CC[C@]3(C)C(=CC[C@@H]4[C@@]5(C)C[C@@H](O)[C@H](O)[C@@](C)(CO)[C@@H]5CC[C@]43C)[C@H]12` [AA, asiatic acid], the “Time of plasma peak post consumption” value [1] is given as 2.7 h, the Tmax post-ingestion [2] is given as 4.0 to 4.6 h and the “Detection in 10 h post-administration urine” value [3] is given as “very low concentrations”. The “Predominant form (free or conjugated) in post-administration urine” value (“Predominant form (free or conjugated)” below) [3] was “predominantly in the conjugated form”, the Cmax ([4]; oral) was 133 to 259 ng/mL and the Tmax ([4]; oral) was 2 h. The Cmax ([4]; oral, 2 g) was 99 ng/mL, the Tmax ([4]; oral, 2 g) was 3 h and the Cmax ([4]; oral, 4 g) was 206 ng/mL. For the same compound, the Tmax ([4]; oral, 4 g) was 2.5 h, the AUC(0-t) ([4]; po, 2 g) was 364 ± 114 ng·h/mL and the Cmax ([4]; po, 2 g) was 124 ± 29 ng/mL. The Tmax ([4]; po, 2 g) was 2 ± 0.6 h, the half-life ([4]; po, 2 g) was 3.8 ± 1 h and the AUC(0-t) ([4]; po, 4 g) was 935 ± 178 ng·h/mL. The Cmax ([4]; po, 4 g) was 259 ± 24 ng/mL, the Tmax ([4]; po, 4 g) was 2 ± 0.6 h and the half-life ([4]; po, 4 g) was 2.2 ± 0.5 h. For the same compound, the “Time of larger secondary peak of plasma concentration-time curve” value [4] was 2.5 h and 2.5 to 3 h, the “Time of preliminary (initial) peak of plasma concentration-time curve” value (shortened to “Time of preliminary”) [4] was 0.5 h and the “Screening Total, urine concentration” value [5] was 0.5 ± 5 ng/mL.

Work on `O=C(O)/C=C/c1ccc(O)c(O)c1` [CA, caffeic acid] yielded a Cmax (clinical) of 0.3 ± 0.2 ng/mL, a Cmax ([4]; oral) of 0.3 to 0.5 ng/mL and a Tmax ([4]; oral) of 6 h. The AUC(0-t) ([4]; po, 2 g) was 1 ± 1 ng·h/mL, the half-life ([4]; po, 2 g) was 2.6 h and the AUC(0-t) ([4]; po, 4 g) was 3 ± 0.3 ng·h/mL. For the same compound, the Cmax ([4]; po, 4 g) was 1 ± 0.1 ng/mL, the Tmax ([4]; po, 4 g) was 4 ± 1 h and the half-life ([4]; po, 4 g) was 3.5 ± 1.2 h. For the same compound, the “Screening Unconjugated, urine concentration” value (“Screening Unconjugated” for short) [5] was 184 ± 144 ng/mL, the “Screening Total, urine concentration” value [5] was 260 ± 140 ng/mL and the “Plasma concentration at screening visit” value [5] was 0.8 ± 0.6 ng/mL.

In the case of `O=C(O)CCc1ccc(O)c(O)c1` [DHCA, dihydrocaffeic acid], the “Predominant form (free or conjugated)” value [3] is reported as “predominantly conjugated form”, the Cmax ([4]; oral) is reported as 1 to 2 ng/mL and the Tmax ([4]; oral) is reported as 4 h. The AUC(0-t) ([4]; po, 2 g) was 3 ± 0.4 ng·h/mL, the Cmax ([4]; po, 2 g) was 1 ± 0.4 ng/mL and the Tmax ([4]; po, 2 g) was 3.25 ± 0.5 h. For the same compound, the half-life ([4]; po, 2 g) was 4.8 ± 1.3 h, the AUC(0-t) ([4]; po, 4 g) was 6 ± 1 ng·h/mL and the Cmax ([4]; po, 4 g) was 2 ± 0.2 ng/mL. For the same compound, the Tmax ([4]; po, 4 g) was 3.5 ± 0.5 h, the half-life ([4]; po, 4 g) was 1.1 ± 0.4 h and the “Time of larger secondary peak of plasma concentration-time curve” value [4] was 4 h. The “Time of preliminary” value [4] was 2 h, the “Fold difference in Cmax between the 2 g and 4 g doses” value (shortened to “Fold difference”) [4] was “two-fold” and the “Baseline Total, urine concentration” value [5] was 9 ± 3 ng/mL. For the same compound, the “Baseline Unconjugated, urine concentration” value [5] was 0.9 ± 2 ng/mL, the “Screening Unconjugated” value [5] was 46 ± 36 ng/mL and the “Screening Total, urine concentration” value [5] was 117 ± 64 ng/mL. For the same compound, the “Plasma concentration at screening visit” value [5] was 0.3 ± 0.2 ng/mL.

In the case of `COc1cc(CCC(=O)O)ccc1O` [DHFA, dihydroferulic acid], the “Predominant form (free or conjugated)” value [3] is reported as “predominantly conjugated form”, the Cmax ([4]; oral) is reported as 11 to 20 ng/mL and the Tmax ([4]; oral) is reported as 4 h. The AUC(0-t) ([4]; po, 2 g) was 42 ± 18 ng·h/mL, the Cmax ([4]; po, 2 g) was 11 ± 5 ng/mL and the Tmax ([4]; po, 2 g) was 3.4 ± 1 h. It also gave a half-life ([4]; po, 2 g) of 4.5 ± 1.6 h, an AUC(0-t) ([4]; po, 4 g) of 77 ± 25 ng·h/mL and a Cmax ([4]; po, 4 g) of 20 ± 6 ng/mL. For the same compound, the Tmax ([4]; po, 4 g) was 3.5 ± 0.5 h, the half-life ([4]; po, 4 g) was 2.5 ± 0.3 h and the “Fold difference” value [4] was “two-fold”. For the same compound, the “Baseline Total, urine concentration” value [5] was 273 ± 131 ng/mL, the “Baseline Unconjugated, urine concentration” value [5] was 8 ± 6 ng/mL and the “Screening Unconjugated” value [5] was 179 ± 74 ng/mL. The “Screening Total, urine concentration” value [5] was 939 ± 507 ng/mL and the “Plasma concentration at screening visit” value [5] was 6.6 ± 3.2 ng/mL.

For `COc1cc(/C=C/C(=O)O)ccc1O` [FA, ferulic acid], the “Cmax, range over the 2 g and 4 g doses as stated in text” value [6] was 1 to 1.4 ng/mL, the “Tmax as stated in text” value [6] was 6 h and the “Predominant form (free or conjugated)” value [7] was “predominantly conjugated form”. For the same compound, the “Plasma concentration at screening visit” value [8] was 1.3 ± 0.2 ng/mL, the “Screening Total, urine concentration” value [8] was 372 ± 78 ng/mL and the “Screening Unconjugated” value [8] was 7 ± 3 ng/mL.

For `O=C(O)CCc1cccc(O)c1` [HPP, 3-(3-hydroxyphenyl)propionic acid], the “Predominant form (free or conjugated)” value [3] was “predominantly conjugated form”, the Cmax ([4]; oral) was 32 to 42 ng/mL and the Tmax ([4]; oral) was 6 h. For the same compound, the AUC(0-t) ([4]; po, 2 g) was 100 ± 46 ng·h/mL, the Cmax ([4]; po, 2 g) was 32 ± 18 ng/mL and the Tmax ([4]; po, 2 g) was 6 ± 1.4 h. The half-life ([4]; po, 2 g) was 2.3 ± 0.3 h, the AUC(0-t) ([4]; po, 4 g) was 189 ± 77 ng·h/mL and the Cmax ([4]; po, 4 g) was 42 ± 18 ng/mL. For the same compound, the Tmax ([4]; po, 4 g) was 5.5 ± 1.7 h, the half-life ([4]; po, 4 g) was 1.8 ± 0.7 h and the “Baseline Total, urine concentration” value [5] was 2 ± 2 ng/mL. For the same compound, the “Screening Unconjugated” value [5] was 23 ± 14 ng/mL, the “Screening Total, urine concentration” value [5] was 91 ± 48 ng/mL and the “Plasma concentration at screening visit” value [5] was 49.6 ± 30.4 ng/mL.

In the case of `COc1ccc(/C=C/C(=O)O)cc1O` [IFA, isoferulic acid], the “Predominant form (free or conjugated)” value [3] is reported as “predominantly conjugated form”, the Cmax ([4]; oral) is reported as 0.9 to 2 ng/mL and the Tmax ([4]; oral) is reported as 0.75 h. For the same compound, the AUC(0-t) ([4]; po, 2 g) was 5 ± 2 ng·h/mL, the Cmax ([4]; po, 2 g) was 0.9 ± 0.3 ng/mL and the Tmax ([4]; po, 2 g) was 1.3 ± 0.6 h. For the same compound, the half-life ([4]; po, 2 g) was 8.8 ± 5.7 h, the AUC(0-t) ([4]; po, 4 g) was 8 ± 0.4 ng·h/mL and the Cmax ([4]; po, 4 g) was 2 ± 0.1 ng/mL. For the same compound, the Tmax ([4]; po, 4 g) was 1 ± 0.4 h, the half-life ([4]; po, 4 g) was 2.9 ± 0.6 h and the “Fold difference” value [4] was “two-fold”. For the same compound, the “Baseline Total, urine concentration” value [5] was 5 ± 2 ng/mL, the “Screening Unconjugated” value [5] was 4 ± 3 ng/mL and the “Screening Total, urine concentration” value [5] was 472 ± 246 ng/mL. The “Plasma concentration at screening visit” value [5] was 2.3 ± 1.0 ng/mL.

`C[C@H]1[C@H](C)CC[C@]2(C(=O)O)CC[C@]3(C)C(=CC[C@@H]4[C@@]5(C)C[C@@H](O)[C@H](O)[C@@](C)(CO)[C@@H]5[C@H](O)C[C@]43C)[C@H]12` [MA, madecassic acid] showed a Cmax ([4]; oral) of 36 to 68 ng/mL, a Tmax ([4]; oral) of 2 h and a Cmax ([4]; oral, 2 g) of 32 ng/mL. For the same compound, the Tmax ([4]; oral, 2 g) was 0.75 h, the Cmax ([4]; oral, 4 g) was 47 ng/mL and the Tmax ([4]; oral, 4 g) was 3 h. For the same compound, the AUC(0-t) ([4]; po, 2 g) was 101 ± 16 ng·h/mL, the Cmax ([4]; po, 2 g) was 38 ± 3 ng/mL and the Tmax ([4]; po, 2 g) was 2 ± 0.5 h. The half-life ([4]; po, 2 g) was 1.7 ± 0.5 h, the AUC(0-t) ([4]; po, 4 g) was 187 ± 48 ng·h/mL and the Cmax ([4]; po, 4 g) was 63 ± 10 ng/mL. For the same compound, the Tmax ([4]; po, 4 g) was 2 ± 0.5 h, the half-life ([4]; po, 4 g) was 1.7 ± 0.9 h and the “Time of preliminary” value [4] was 0.75 h.

In the case of `C[C@H]1[C@H](C)CC[C@]2(C(=O)O[C@@H]3O[C@H](CO[C@@H]4O[C@H](CO)[C@@H](O[C@@H]5O[C@@H](C)[C@H](O)[C@@H](O)[C@H]5O)[C@H](O)[C@H]4O)[C@@H](O)[C@H](O)[C@H]3O)CC[C@]3(C)C(=CC[C@@H]4[C@@]5(C)C[C@@H](O)[C@H](O)[C@@](C)(CO)[C@@H]5[C@H](O)C[C@]43C)[C@H]12` [MS, madecassoside], the “Plasma concentration after single administration of modified ECa233” value [9] is given as 10 to 13 ng/mL, the “Detection in 10 h post-administration urine” value [3] is given as “small amounts” and the “Predominant form (free or conjugated)” value [3] is given as “predominantly free form”. The “Amount in the 10 h urine” value ([3]; after 2 g or 4 g CAP) was 1 to 8 µg and the Plasma levels ([4]; all time points, 2 g and 4 g CAP) was “below the lower limit of quantitation (LLOQ)”.
